Read-outs that look alike come from different tables or passages of the source.

The test system of the assay is edema in the hind paws (carrageenan). Description: carrageenan-induced hind paw edema, oral administration. It counts as in vivo, male Wistar rats. Particulars: Rattus norvegicus; for inhibition in vivo at 10 mg/kg: 10 mg/kg orally; for inhibition in vivo at 5 mg/kg: 5 mg/kg orally; for inhibition in vivo at 1 mg/kg: 1 mg/kg orally. The method, then:
That is, male Wistar rats weighing about 100 g, one group consisting of 5 to 7 animals, were given orally the compounds according to the present invention and then edema was induced in the hind paws by subcutaneous injections of 0.1 ml of 1% carrageenan 1 hour after the administration of the test compounds, and the volumes of the hind paws were measured by a volume differential meter.
(In the carrageenan paw model, swelling and tenderness develop within hours.)

[1] abbreviates: 1 hr, read-out: Inhibition (%) 1 hr.
The mark [2] stands for this setting: 2 hr, read-out: Inhibition (%) 2 hr.
[3] abbreviates: 3 hr, read-out: Inhibition (%) 3 hr.
The mark [4] stands for this setting: 4 hr, read-out: Inhibition (%) 4 hr.
Setting [5] is: 5 hr, read-out: Inhibition (%) 5 hr.
Where [6] appears, read: 6 hr, read-out: Inhibition (%) 6 hr.

For `CC(C(=O)O)c1ccc2c(c1)C(=O)Cc1cccnc1S2` (centres unmarked) [Compound 20, 2-(5,6-dihydro-6-oxobenzo[b]pyrido[3,2-f]thiepin-8-yl)-propionic acid], the inhibition in vivo at 10 mg/kg reads like this: under setting [1], 45%; under setting [2], 54.3%; under setting [3], 47.5%; under setting [4], 33.8%; under setting [5], 28.9%; under setting [6], 24.3%.
In the case of `CC(C(=O)O)c1ccc2c(c1)CCc1cccnc1S2` (centres unmarked) [Compound 21, 2-(5,6-dihydrobenzo[b]pyrido[3,2-f]thiepin-8-yl)-propionic acid], the inhibition in vivo at 10 mg/kg worked out at 69.5% under setting [1]; 75.6% under setting [2]; 69% under setting [3]; 67% under setting [4]; 70.3% under setting [5]; 64.6% under setting [6].
Consider `CCOC(=O)C(C)c1ccc2c(c1)CCc1cccnc1S2` (centres unmarked) [Compound 22, Ethyl 2-(5,6-dihydrobenzo[b]pyrido[3,2-f]thiepin-8-yl)-propionate], for which the inhibition in vivo at 10 mg/kg was 29.6% under setting [1]; 51.7% under setting [2]; 59.1% under setting [3]; 57% under setting [4]; 45.9% under setting [5]; 42.8% under setting [6].
Turning to `CC(C(N)=O)c1ccc2c(c1)CCc1cccnc1S2` (centres unmarked) [Compound 23, 2-(5,6-dihydrobenzo[b]pyrido[3,2-f]thiepin-8-yl)-propionamide], the inhibition in vivo at 5 mg/kg runs as follows: under setting [1], 22.6%; under setting [2], 53.8%; under setting [3], 60.9%; under setting [4], 64.1%; under setting [5], 51.8%; under setting [6], 37.5%.
As for `CC(C(=O)O)c1ccc2c(c1)Sc1ncccc1CC2` (centres unmarked) [Compound 24, 2-(5,6-dihydrobenzo[b]pyrido[3,2-f]thiepin-9yl)-propionic acid], the inhibition in vivo at 10 mg/kg worked out at 19.6% under setting [1]; 52.1% under setting [2]; 49.9% under setting [3]; 38.3% under setting [4]; 28.2% under setting [5]; 27.2% under setting [6].
On to `CCOC(=O)C(C)c1ccc2c(c1)Sc1ncccc1CC2` (centres unmarked) [Compound 25, Ethyl 2-(5,6-dihydrobenzo[b]pyrido[3,2-f]thiepin-9-yl)-propionate], for which the inhibition in vivo at 10 mg/kg under setting [1] turned out to be 42.8%; the inhibition in vivo at 10 mg/kg under setting [2] turned out to be 57.7%; the inhibition in vivo at 10 mg/kg under setting [3] worked out at 61%; the inhibition in vivo at 10 mg/kg under setting [4] was determined as 52.7%; the inhibition in vivo at 10 mg/kg under setting [5] came out at 33.4%; the inhibition in vivo at 10 mg/kg under setting [6] came to 29.2%.
With `CC(C(=O)O)c1ccc2c(c1)C(=O)Cc1cccnc1O2` (centres unmarked) [Compound 26, 2-(5,6-dihydro-6-oxobenzo[b]pyrido[3,2-f]oxepin-8-yl)-propionic acid], the inhibition in vivo at 5 mg/kg is 55.7% under setting [1]; 52.6% under setting [2]; 40% under setting [3]; 32.2% under setting [4]; 29.7% under setting [5]; 24% under setting [6].
Turning to `CC(C(=O)O)c1ccc2c(c1)CCc1cccnc1O2` (centres unmarked) [Compound 27, 2-(5,6-dihydrobenzo[b]pyrido[3,2-f]oxepin-8yl)-propionic acid], the inhibition in vivo at 5 mg/kg stood at 68% under setting [1]; 83.5% under setting [2]; 79% under setting [3]; 81% under setting [4]; 70.6% under setting [5]; 61.5% under setting [6].
On to `CCOC(=O)C(C)c1ccc2c(c1)CCc1cccnc1O2` (centres unmarked) [Compound 28], for which the inhibition in vivo at 5 mg/kg runs as follows: under setting [1], 11.7%; under setting [2], 35.1%; under setting [3], 50.9%; under setting [4], 55.4%; under setting [5], 47.1%; under setting [6], 37.7%.
As to `CC(C(N)=O)c1ccc2c(c1)CCc1cccnc1O2` (centres unmarked) [Compound 29, 2-(5,6-dihydrobenzo[b]pyrido[3,2-f]oxepin-8-yl)-propionamide], the inhibition in vivo at 5 mg/kg is, setting by setting: under setting [1], 18.1%; under setting [2], 38.3%; under setting [3], 53.5%; under setting [4], 53.8%; under setting [5], 46.2%; under setting [6], 42.9%.
As to `CC(C(N)=O)c1ccc2c(c1)CCc1ccccc1S2` (centres unmarked) [Compound 30, 2-(10,11-dihydrodibenzo[b,f]thiepin-2-yl)-propionamide], the inhibition in vivo at 5 mg/kg worked out at 21.4% under setting [1]; 56.4% under setting [2]; 59% under setting [3]; 52.8% under setting [4]; 38.6% under setting [5]; 27.3% under setting [6].
With `O=C(O)c1ccccc1Nc1cccc(C(F)(F)F)c1` [Flufenamic acid, reference compound], the inhibition in vivo at 5 mg/kg stood at 6.8% under setting [1]; 25.9% under setting [2]; 26.2% under setting [3]; 25.3% under setting [4]; 16% under setting [5]; 10.6% under setting [6]. Further, the inhibition in vivo at 10 mg/kg runs as follows: under setting [1], -2.9%; under setting [2], 23.9%; under setting [3], 26.8%; under setting [4], 29.5%; under setting [5], 23.8%; under setting [6], 15.4%.
In the case of `COc1ccc2c(c1)c(CC(=O)O)c(C)n2C(=O)c1ccc(Cl)cc1` [Indomethacin, reference compound], the inhibition in vivo at 1 mg/kg by setting is: under setting [1], 21.6%; under setting [2], 39.6%; under setting [3], 29.9%; under setting [4], 36.4%; under setting [5], 28.9%; under setting [6], 28.7%. The inhibition in vivo at 5 mg/kg runs as follows: under setting [1], 38.3%; under setting [2], 51.7%; under setting [3], 59.2%; under setting [4], 58.4%; under setting [5], 48.7%; under setting [6], 41%. For the same molecule, the inhibition in vivo at 10 mg/kg is 64.4% under setting [1]; 59.8% under setting [2]; 52.1% under setting [3]; 63.8% under setting [4]; 54.4% under setting [5]; 50.3% under setting [6].
Regarding `CCCCC1C(=O)N(c2ccccc2)N(c2ccccc2)C1=O` [Phenyl butazone, reference compound], the inhibition in vivo at 5 mg/kg is, setting by setting: under setting [2], 22.7%; under setting [3], 21.1%; under setting [4], 22.2%; under setting [5], 13.1%; under setting [6], 13.6%. In addition, the inhibition in vivo at 10 mg/kg reads like this: under setting [1], 12.4%; under setting [2], 23.7%; under setting [3], 27.4%; under setting [4], 20%; under setting [5], 14.4%; under setting [6], 8.6%.

(Values after patent publication US4205170A, “Propionic acid derivatives” (priority 1976, dated 1980).)
